# Measured values taken from article PMC3517626, “Targeting Fatty Acid Binding Protein (FABP) Anandamide Transporters – A Novel Strategy for Development of Anti-Inflammatory and Anti-Nociceptive Drugs” (PLoS ONE, 2012).
# How the values were obtained:
# Solubility in DMSO = type: physicochemical; settings: in DMSO at 25°C
# human FABP5 [1] = target: T1, human FABP5 (Homo sapiens, UniProt Q01469); settings: cited from earlier work
# T1 construct: FABP5 was purified and delipidated as described previously; made in house
# human FABP5 [2] = target: T1, human FABP5; experiment: Fluorescence displacement assay with NBD-stearate; type: binding; settings: test compound 10 µM, NBD-stearate 1 µM
# Experimental: FABP5 was purified and delipidated as described previously. FABP5 (30 µg), NBD-stearate (1 µM), and a competitor test compound were incubated in 30 mM Tris-HCl, 100 mM NaCl buffer (pH 7.6). Competitors included arachidonic acid, BMS309403, 48 test compounds from ChemDiv library, SB-FI-26 and SB-FI-49. The initial assay was run with buffer (30 mM Tris-HCl buffer), negative controls (buffer and NBD-stearate), positive controls (buffer, NBD-stearate, FABP5), and experimental wells with a variable test compound added (arachidonic acid or one of the 48 test compounds) at 10 µM. […] The fluorescent assays were tested in the wells of Microtest 96-well Assay Plates, Optilux (BD Biosciences, Franklin Lakes, NJ) and loss of fluorescence intensity was measured with a FLUOstar OPTIMA spectrofluorometer set to excitation and emission wavelengths of 460 nm and 544 nm, respectively. […] The Kd of NBD-stearate for FABP5 had been determined previously through incubating FABP5 with increasing concentrations of NBD-stearate.
# CB1 receptors = experiment: Patch-clamp electrophysiology in brain slices (EPSCs of dorsal raphe 5-HT neurons); type: cell-based; settings: bath application 10 µM; DR 5-HT neurons; n = 8; mean ± SEM
# Experimental: Whole-cell-voltage clamp recordings of dorsal raphe (DR) serotonin (5-HT) neurons were performed as previously described. Briefly, DR neurons were visualized using an upright microscope (BX 51 WI, Olympus, Tokyo, Japan) equipped with a differential interference contrast and infrared imaging system. Somatic recordings from DR neurons were obtained with path electrodes ([…]) back-filled with potassium gluconate based internal solution of the following composition: 120 mM potassium gluconate, 10 mM KCl, 10 mM Na2-phosphocreatine, 10 mM HEPES, 1 mM MgCl2, 1 mM EGTA, 2 mM Na2-ATP, 0.25 mM Na-GTP, pH 7.3 (Adjusted with KOH; Osmolarity, 280 to 290 mOsmol/l). All the recordings were conducted in the presence of GABAA receptor antagonist picrotoxin (100 µM). Excitatory postsynaptic currents (EPSCs) were evoked with a single square stimulus (intensity, 1 to 10 V, duration, 100 to 200 µs) delivered via a glass stimulating electrode. […]
# The amplitude of EPSCs was determined by measuring the average current during a 2-ms period at the peak of each EPSC and subtracted from the baseline current determined during a 5-ms time window before the stimulus. All EPSC amplitudes were normalized to the mean baseline amplitude recorded for at least 10 min before drug application. […]
# PPARα = target: T2, PPARα (Homo sapiens, UniProt Q07869); experiment: PPARα transactivation in HeLa cells; type: cell-based; settings: reporter system, 6 hrs
# T2 construct: expressed in transfected cells; host or cells: HeLa
# T2 sequence (Q07869 1-468): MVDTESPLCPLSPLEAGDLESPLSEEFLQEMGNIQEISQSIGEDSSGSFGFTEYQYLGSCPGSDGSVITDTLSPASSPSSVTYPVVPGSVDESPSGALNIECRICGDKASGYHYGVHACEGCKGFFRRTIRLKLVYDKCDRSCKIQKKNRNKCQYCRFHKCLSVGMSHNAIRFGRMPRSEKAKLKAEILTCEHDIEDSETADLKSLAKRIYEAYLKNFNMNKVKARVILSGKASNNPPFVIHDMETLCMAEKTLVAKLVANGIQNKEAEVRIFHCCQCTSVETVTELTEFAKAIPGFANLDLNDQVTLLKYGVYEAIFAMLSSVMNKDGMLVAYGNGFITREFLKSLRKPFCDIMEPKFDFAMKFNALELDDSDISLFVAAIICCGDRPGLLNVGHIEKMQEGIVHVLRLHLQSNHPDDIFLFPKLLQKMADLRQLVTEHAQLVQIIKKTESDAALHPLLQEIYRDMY
# Experimental: (§1) PPARα and PPARγ transactivation assays were performed in HeLa cells exactly as described. Briefly, cells were transfected with the PPAR reporter system, incubated with GW7647, rosiglitazone, or SB-FI-26 for 6 hrs, followed by measurement of luciferase and β-galactosidase activity using a luminometer as described.
# PPARγ = target: T3, PPARγ (Homo sapiens, UniProt P37231); experiment: PPARγ transactivation in HeLa cells; type: cell-based; settings: reporter system, 6 hrs
# T3 construct: expressed in transfected cells; host or cells: HeLa
# T3 sequence (P37231 1-505): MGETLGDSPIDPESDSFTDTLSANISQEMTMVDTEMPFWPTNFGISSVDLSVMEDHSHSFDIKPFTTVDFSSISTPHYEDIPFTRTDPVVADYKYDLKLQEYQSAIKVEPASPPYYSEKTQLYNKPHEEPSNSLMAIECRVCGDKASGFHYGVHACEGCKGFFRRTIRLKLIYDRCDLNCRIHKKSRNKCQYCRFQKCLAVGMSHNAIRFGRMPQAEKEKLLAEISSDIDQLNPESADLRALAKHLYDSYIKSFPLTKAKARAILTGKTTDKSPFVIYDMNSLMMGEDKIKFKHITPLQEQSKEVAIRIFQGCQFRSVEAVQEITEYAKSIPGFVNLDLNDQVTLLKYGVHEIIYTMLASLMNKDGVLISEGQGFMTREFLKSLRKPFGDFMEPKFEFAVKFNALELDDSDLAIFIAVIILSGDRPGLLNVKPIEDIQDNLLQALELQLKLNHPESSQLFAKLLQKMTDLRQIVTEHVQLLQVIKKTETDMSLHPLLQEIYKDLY
# Experimental: as §1
# AEA uptake in HeLa cells = experiment: AEA uptake in HeLa cells; type: cell-based
# Experimental: AEA uptake assays in wild-type and FABP5 knockdown HeLa cells were performed exactly as described.
# rat FAAH = target: T4, rat FAAH (Rattus norvegicus, UniProt P97612); experiment: FAAH enzyme assay ([14C]AEA hydrolysis in HeLa homogenates); type: biochemical; settings: FAAH-transfected HeLa homogenates
# T4 construct: expressed in transfected cells; host or cells: HeLa (homogenates)
# T4 sequence (P97612 1-579): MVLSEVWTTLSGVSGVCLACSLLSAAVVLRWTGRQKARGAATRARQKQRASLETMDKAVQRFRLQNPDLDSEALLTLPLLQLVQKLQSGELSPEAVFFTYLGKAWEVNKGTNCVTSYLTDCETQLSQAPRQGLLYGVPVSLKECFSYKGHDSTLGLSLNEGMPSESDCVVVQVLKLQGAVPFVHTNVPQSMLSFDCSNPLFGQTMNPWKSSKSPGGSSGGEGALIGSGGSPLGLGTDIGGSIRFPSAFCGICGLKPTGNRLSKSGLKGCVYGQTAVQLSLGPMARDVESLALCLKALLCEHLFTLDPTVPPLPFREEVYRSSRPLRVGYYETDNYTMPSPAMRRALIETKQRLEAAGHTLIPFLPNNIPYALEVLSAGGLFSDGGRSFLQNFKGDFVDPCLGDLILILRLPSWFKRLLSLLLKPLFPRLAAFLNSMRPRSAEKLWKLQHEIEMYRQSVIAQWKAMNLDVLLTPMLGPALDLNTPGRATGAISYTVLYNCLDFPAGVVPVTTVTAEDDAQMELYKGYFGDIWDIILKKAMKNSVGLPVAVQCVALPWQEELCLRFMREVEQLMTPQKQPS
# Experimental: Enzyme assays measuring the hydrolysis of [^14C]AEA in the presence of SB-FI-26 or the FAAH inhibitor URB597 were carried out in HeLa homogenates expressing rat FAAH as described.
# male C57Bl6 mice [3] = experiment: Formalin test; type: in vivo
# Experimental: (§2) We used male C57Bl6 mice (22–30 g, Taconic Farms) for all experiments. The animals were group housed at room temperature and kept on a 12∶12 hour light∶dark cycle with ad libitum access to water and food. The animals were habituated to the experimental room for one week before testing.
# Mice were habituated to the observation chamber (Plexiglas box, 25 cm×25 cm×25 cm) for 30 min prior to formalin injection. The mice subsequently received an injection of formalin (2.5% in saline, 20 µl) into the plantar surface of the right hind paw using a 27 gauge needle. The animals were immediately placed back into the observation chamber and nocifensive behavior (time spent licking or biting the paw) was recorded for 60 min. The formalin test consists of two phases with the first phase (0–5 min) reflecting nociceptor activation and the second phase (15–45 min) reflecting an inflammatory pain response.
# male C57Bl6 mice [4] = experiment: Carrageenan-induced paw edema and thermal hyperalgesia; type: in vivo
# Experimental: as §2
# Paw edema was induced by injecting 1% λ-carrageenan (20 µl, in sterile saline) into the plantar surface of the left hind paw and a control solution of saline into the right hind paw using a 27 gauge needle. Paw diameters were measured before carrageenan injection and 4 hours after injection using digital electronic calipers (Fisher) and expressed to the nearest ±0.01 mm. SB-FI-26 (20 mg/kg, i.p.) was dissolved in ethanol∶emulphor∶saline (1∶1∶18), requiring sonication and gentle heating for solubilization, and administered 45 min prior to injection of carrageenan. The cannabinoid receptor antagonists, rimonabant and SR144528 (3 mg/kg, i.p.), in ethanol∶emulphor∶saline (1∶1∶18), were injected 15 min before the FABP inhibitor. Edema is reported as the change in paw diameter at 4 hr over the baseline. Changes in paw diameter of saline-injected contralateral paws were negligible. Thermal hyperalgesia measured the latency to withdraw the paw from a focused beam of radiant heat applied to the plantar surface of the hind paw using a Hargreaves plantar apparatus (Ugo Basile) set at an intensity of 3.0. For each mouse, the average latencies consisted of three trials spaced at least 5 minutes apart. The mice were habituated to the test chamber for 30 min. The cutoff time was set at 30 sec.
# T1 sequence (Q01469 whole entry): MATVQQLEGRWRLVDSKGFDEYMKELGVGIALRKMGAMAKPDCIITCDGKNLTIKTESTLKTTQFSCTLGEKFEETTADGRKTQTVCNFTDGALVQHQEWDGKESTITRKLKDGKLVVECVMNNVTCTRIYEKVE
smiles,measurement,setting,value
"CCc1c(-c2ccccc2)c(-c2ccccc2)nn1-c1ccccc1-c1cccc(OCC(=O)O)c1 [BMS309403, reference compound]",solubility,Solubility in DMSO,1 mM
"CCCCCCC(CCCCCCCCCCC(=O)O)N(C)c1ccc([N+](=O)[O-])c2nonc12 (centres unmarked) [NBD-stearate, 12-N-methyl-(7-nitrobenz-2-oxa-1,3-diazo)aminostearic acid]",Kd,"human FABP5 [1]; one site binding analysis, determined previously, read-out: Kd of NBD-stearate for FABP5",160 nM
COc1cccc([C@@H]2Oc3ccccc3[C@@H]3CC(c4cccs4)=CN32)c1CC(=O)O [SB-FI-19],inhibition at 10 µM,human FABP5 [2],≥ 50%
"O=C(O)[C@H]1[C@@H](c2ccccc2)[C@H](C(=O)Oc2cccc3ccccc23)[C@@H]1c1ccccc1 [SB-FI-26, α-Truxillic acid 1-naphthyl ester]",solubility,Solubility in DMSO,1 mM
same,amplitude of EPSCs,CB1 receptors,107±6.7 % of baseline
same,activation of PPARα,PPARα,~2 fold
same,activation of PPARγ,PPARγ,~3 fold
same,AEA uptake,AEA uptake in HeLa cells; HeLa cells bearing a knockdown of FABP5 (shRNA),failed to reduce AEA uptake
same,cellular AEA accumulation (AEA uptake),AEA uptake in HeLa cells; wild-type HeLa cells,significantly inhibited cellular AEA accumulation
same,inhibition of FAAH (AEA hydrolysis),rat FAAH,does not inhibit FAAH
same,"nocifensive behavior, first phase of the formalin test","male C57Bl6 mice [3]; 20 mg/kg, i.p., first phase 0–5 min",significantly reduced nocifensive behavior
same,nocifensive behavior when administered alone,"male C57Bl6 mice [3]; intraplantar injection of 20 µg, no formalin",did not evoke nocifensive behavior
same,carrageenan-induced thermal hyperalgesia,"male C57Bl6 mice [4]; 20 mg/kg, i.p., 45 min prior to carrageenan",significantly reduced
same,carrageenan-induced paw edema,"male C57Bl6 mice [4]; 20 mg/kg, i.p., 45 min prior to carrageenan, paw diameter at 4 hr",significantly reduced
same,antinociceptive and anti-edematous effects after pretreatment with rimonabant and SR144528,"male C57Bl6 mice [4]; SB-FI-26 20 mg/kg i.p., antagonists 3 mg/kg i.p. 15 min before",completely reversed
same,paw edema when administered alone,male C57Bl6 mice [4]; without carrageenan,did not induce paw edema
O=C(O)[C@H]1CC(=O)N(Cc2ccc3c(c2)OCO3)/C(=N/c2ccc(F)cc2)S1 [SB-FI-27],inhibition at 10 µM,human FABP5 [2],≥ 50%
Cn1c(C(=O)O)c(CC(=O)N2CCC(Cc3ccccc3)CC2)c2ccccc21 [SB-FI-31],inhibition at 10 µM,human FABP5 [2],≥ 50%
"O=C(O)[C@H]1[C@@H](c2ccccc2)[C@H](C(=O)Oc2cccc3ccccc23)[C@@H]1c1ccccc1 [SB-FI-49, γ-Truxillic acid 1-naphthyl ester]",solubility,Solubility in DMSO,0.2 mM
CCCCC/C=C\C/C=C\C/C=C\C/C=C\CCCC(=O)O [arachidonic acid],Ki,"human FABP5 [1]; arachidonic acid, positive control, binding to FABP5, ref not given",130 nM
